Data reported in US20110189174A1, “COMPOSITIONS AND METHODS FOR TREATING, REDUCING, AMELIORATING, ALLEVIATING, OR INHIBITING PROGRESSION OF, PATHOGENIC OCULAR NEOVASCULARIZATION” (priority 2010, published 2011).

Key:
[1] = system: human retinal endothelial cells (HREC); assay: Testing 7: VEGF-induced HREC proliferation (MTS assay), integrin antagonists and Lucentis alone and in combination; type: cell-based; conditions: study II; compound 1 nM; Lucentis 1 ng/mL
Experimental: HREC were first cultured overnight in a 96-well plate coated with fibronectin. The next day medium containing different agents as shown in Tables 14 and 15 was pre-incubated for 1 hour before being added into appropriate wells. The cells were cultured at 37° C., 5% CO2, and 95% humidity for another 3 days. After that, cell proliferation was estimated by the MTS assay. In the first study we used VEGF 10 ng/mL (about EC80 in study PH08169), Lucentis® 1 ng/mL (about EC25 in study PH09038) and 5 doses of BOL-303055-X. Normal IgG (1 ng/ml) was also added to groups containing no Lucentis®. All groups contained the same amount of 0.1% DMSO. In the second study, all five compounds (BOL-303049-X, BOL-303050-X, BOL-303051-X, BOL-303054-X and BOL-303055-X) were tested at 1 nM with other conditions remaining the same.
A 96-well plate was coated with human fibronectin (10 μg/mL) for 5 hours at 37° C. HREC were washed with HBSS buffer once, tripsinized and re-suspended in 10% FBS CS-C medium at 18,000 cells/mL. Cells (200 μL) were added to the plate and cultured overnight at 37° C., 5% CO2, and 95% humidity. Next day, the cells were serum-starved for 2 hours.
For study I, VEGF at 10 ng/mL, Lucentis® at 1 ng/mL and BOL-303055-X at 0.1, 0.3, 1, 3 and 10 nM were prepared in 1% FBS CS medium as shown in Table 14. Normal IgG (1 ng/mL) were added to groups containing no Lucentis®. All medium solutions were incubated for 1 hour at 37° C. After carefully medium was aspirated, 200 μL of the medium containing different agents were then added into appropriate wells. The cells were cultured for another 3 days. For the study II as shown in the Table 15, five compounds were tested at 1 nM with other conditions remaining the same as study I.
(§1) At the end of incubation, the medium was carefully aspirated from cells and 120 μl of MTS working solution was added into all wells including blank wells (without cells). The plates were incubated at 37° C., 5% CO2, and 95% humidity for 1 hour and then read by a plate reader at 490 nm wavelength.
Median optical density (OD) was generated from different groups. Data were expressed as mean±SEM of the OD values. Statistical analysis was performed using three-way ANOVA after Box-Cox transformations, and p<0.05 was considered statistically significant. To evaluate whether the effects of the combinations were either synergistic or additive, net inhibitions were calculated by subtracting the basal levels in the presence of VEGF from the individual treatments (Lucentis® and Integrin blockers) and the combinations. […] Data analysis was performed utilizing the statistical analysis software JMP (SAS Institute, Cary, N.C.).

[2] = Ocular clinical findings in rats 14 days after intravitreal injection; conditions: for Intraocular inflammation and retinal vascular congestion: Day 14 after intravitreal injection
Experimental: The anterior segment of the eye was examined using a slit-lamp biomicroscopy for excluding any animals with abnormalities that might interfere with the study. Fundus photography and fluorescein angiography (FA) were performed to document the health of the retina and the ocular circulation using a TRC 50EX fundus camera (Topcon). For FA, 10% sodium fluorescein was injected intravenously (50 mg/kg of body weight) through the tail vein or the vein under the incisor before the procedure.
Immediately after placement of laser photocoagulation, the experimental eyes received an intravitreal injection of either a compound or a vehicle as described in Table 5. Following the disinfection of ocular surface with 5% betadine and 0.9% saline solutions, the injections were performed with aid of a surgical microscope using 0.3 mL syringes with a 31-gauge ½-inch long needle (Ultra-Fine II™ Insulin syringe, BD, Franklin Lakes, N.J.).
Two weeks after photocoagulation, all rats were examined under anesthesia and pupil dilation with slit-lamp biomicroscopy, fundus photography and FA as described in the baseline examination.

[3] = system: human retinal endothelial cells (HREC); assay: PMA-induced HREC network formation in fibrin gel; type: cell-based; conditions: PMA 25 ng/mL, vs PMA control
Experimental: Prior to the start of the experiment, HREC from Cell Systems were cultured in flask in CS-C complete medium. The tube formation assay was performed in a 96-well plate pre-coated with fibrin gel. HREC were collected from flasks and re-suspended 1% FBS EBM-2 medium. Cells were pre-incubated with the integrin antagonists, echistatin or vehicle control for 30 min before loading onto the fibrin gel. Images were taken at 9 h.
Thrombin solution and fibrinogen solutions were allowed to thaw at room temperature and 37° C. water bath, respectively. Fibrinogen solution at 30 μL was added into the desired number of wells in a 96-well plate. Plate was gently shaken to ensure uniform coverage of fibrinogen solution in the well. Thrombin at 20 μL was added into each well. The plate was gently shaken immediately to ensure the thrombin was mixed well with fibrinogen. The plate was placed at 37° C. overnight to allow the fibrin gel to polymerize.
HREC were trypsinized at about 80% confluence and counted by standard hemocytometer methods. After deactivating trypsin with 5 mL of 10% FBS EBM-2 medium, the cells were centrifuged (800 rpm, 8 min) and re-suspended at 2×10^5 cells/mL in 1% FBS EBM-2 medium
Cells were pre-incubated with integrin compounds or echistatin at 37° C., 5% CO2, and 95% humidity for 30 minutes before mixing with PMA medium. The final concentrations of all agents are shown in the design table. The 100 μL of the cell mixture was added onto the gel and cells were cultured at 37° C., 5% CO2, and 95% humidity. Images were taken at different time points.
The network formation scoring system (a five point-scale)
Each well in one group was given a score and then averaged. Data were expressed as mean±SEM of network formation scores. Statistical analysis was performed using a one-way ANOVA-Dunnett's test in raw data, and p<0.05 was considered statistically significant. Data analysis was performed using statistical analysis software JMP (SAS Institute, Cary, N.C.).

[4] = system: laser-induced CNV in rats; assay: Laser-induced choroidal neovascularization in rats (CNV area, fluorescein angiography grades); type: in vivo, Brown Norway rats; conditions: day 14, 200 μg/eye (echistatin 5 μg, Avastin 125 μg); for Number of lesions in FA grade 1 / Number of lesions in FA grade 2 / Number of lesions in FA grade 3 / Number of lesions in FA grade 4: unobstructed lesions
Experimental: Fifty six male Brown Norway rats, approximately 200-300 grams of body weight and two months of age, were used in this study. This study was performed in two cohorts and only one eye of each rat was used.
The pupils were dilated and then the rats were anesthetized as described in baseline examination. The rats were positioned in front of a slit lamp system (Haag-Streit USA, Mason, Ohio). […] A diode laser (OcuLight TX, IRIDEX, Mountain View, Calif.) was used for photocoagulation (532 nm wavelength, 120 mW power, 50 μm spot size and 0.05 seconds duration). For each right eye, a series of six photocoagulation sites were concentrically placed between the major retinal vessels at equal distance (about two optic discs) around the optic nerve head. […] If a significant retinal or subretinal hemorrhage occurred during the laser photocoagulation, then the left eye was be photocoagulated and used as the experimental eye.
Grade 1 lesions had no hyperfluorescence.
The eyes were collected on day 14 and immediately fixed in 4% paraformaldehyde in PBS (pH 7.4) for one and half hours, and then transferred into cold PBS and kept at 4° C. for further processing.
The incubation was performed in a humidified dark chamber with gentle rotation at 4° C. overnight. On the second day, the retinal pigment epithelium (RPE)-choroidsclera complexes were washed with cold IHC buffer, mounted with ProLong® Gold antifade reagent, covered with circular cover glass, and sealed with clear nail polish. Fluorescent images were collected with a confocal microscope (FluoView FV 1000 confocal microscope, Olympus, Center Valley, Pa.) and a 4×, 0.16 numerical aperture objective lens. […] The laser sites were identified by merging images of the green (phalloidin labeling RPE) and the red (isolectin IB4 labeling CNV) channels. CNV complexes were identified using the red channel (isolectin), and their areas were quantified using the FluoView software (Version 1.7a).
Average FA scores and areas of CNV complexes in each group were presented as mean±SEM, unless otherwise indicated. They were analyzed using a one-way ANOVA followed by a Tukey-Kramer test after Box-Cox transformations. All statistics were performed utilizing the statistical analysis software JMP (SAS Institute, Cary, N.C.). p values ≦0.05 were considered statistically significant.

[5] = system: human retinal endothelial cells (HREC); assay: Testing 5: VEGF-induced HREC proliferation (MTS assay), echistatin and Avastin alone and in combination; type: cell-based; conditions: echistatin 2 nM
Experimental: HREC were first cultured overnight in a 96-well plate coated with fibronectin. The next day, cells were serum-starved for 2 h before treatment. Medium containing different agents as shown in table below was pre-incubated for 1 h before being added to cells. The cells were cultured at 37° C., 5% CO2, and 95% humidity for another 3 days. After that, cell proliferation was estimated by the MTS assay. […] Normal human IgG was also added to different groups in such a way that all groups contained the same amounts of IgG protein.
A 96-well plate was coated with human fibronectin (10 μg/mL) for 5 hours. HREC were collected from flasks by EDTA-trypsin treatment and re-suspended in 10% FBS CS-C medium at 15,000 cells/mL. Cells (200 μL) were added to the plate and cultured overnight at 37° C., 5% CO2, and 95% humidity. Next day, the medium was removed and 200 μl/well serum free medium was added.
All medium solutions were incubated for 1 h at 37° C. After carefully aspirating the medium from cells, […], of the medium containing the different agents was added into appropriate wells. The cells were cultured for another 3 days.
as §1, with “plate was” for “plates were”, “then absorbance was” for “then”
Median optical density (OD) was generated from different groups. Data were expressed as mean±SEM of the OD values. Statistical analysis was performed using a one or two-way ANOVA using Box-Cox transformed data if needed, and P<0.05 was considered statistically significant. […] All the data from the individual wells were fitted to a re-parameterized four-parameter logistic equation to obtain IC50 using similar methodology as that previously described and utilizing the statistical analysis software JMP (SAS Institute, Cary, N.C.).

[6] = Day 14, 200 μg/eye intravitreal
[7] = one intravitreal injection after laser

| Eyes with anterior chamber inflammation/Total eyes [2, 6] | Eyes with retinal vascular congestion/vessel-observable eyes [2, 6] | Compound | Combination effect with Lucentis on VEGF-induced HREC proliferation (synergistic/additive) [1] | Posterior synechiae of iris [2, 6] | Intraocular inflammation and retinal vascular congestion [2] | Inhibition of PMA-induced HREC network formation in fibrin gel ([3]; 1 nM) | Inhibition of PMA-induced HREC network formation in fibrin gel ([3]; 10 nM) | Number of lesions in FA grade 1 [4] | Number of lesions in FA grade 2 [4] | Number of lesions in FA grade 3 [4] | Number of lesions in FA grade 4 [4] | Mean score of fluorescein leakage (FA score) compared to vehicle-treated controls [4, 7] | Cataract formation ([2]; Day 14, echistatin 5 μg/eye intravitreal) | CNV area / development of CNV on isolectin IB4-labeled flat mounts compared to vehicle-treated controls [4, 7] | Enhancement of Avastin potency [5] | Inhibition of VEGF-induced HREC proliferation, agent alone ([5]; Avastin 0.625-10 ng/ml (significant at 10 ng/ml), VEGF 10 ng/mL) | HREC proliferation under basal conditions ([5]; Avastin 0.625-10 ng/ml, no VEGF) | Combination effect with Avastin on VEGF-induced HREC proliferation (synergistic/additive) ([5]; Avastin 0.625 to 10 ng/ml) |
| --- | --- | --- | --- | --- | --- | --- | --- | --- | --- | --- | --- | --- | --- | --- | --- | --- | --- | --- |
| 6/6 | 1/1 | COc1ccc(CCOC(=O)N[C@@H](CNc2nc(C)nc(N3CCC(c4ccc5c(n4)NCCC5)CC3)c2C)C(=O)O)cc1 [BOL-303049-X] | synergistic effect | Posterior synechiae of iris occurred in several eyes | most severe inflammation | significantly inhibited | significantly inhibited | 0 | 0 | 0 | 0 | – | – | – | – | – | – | – |
| 3/6 | 0/4 | Cc1nc(NC[C@H](NC(=O)OCC2CCCCC2)C(=O)O)c(C)c(N2CCC(c3ccc4c(n3)NCCC4)CC2)n1 [BOL-303051-X] | additive effects | – | – | significantly inhibited | significantly inhibited | 2 | 3 | 9 | 10 | smaller means | – | – | – | – | – | – |
| – | – | CC1(C)O[C@@H]2C[C@H]3[C@@H]4CCC5=CC(=O)C=C[C@]5(C)[C@@]4(F)[C@@H](O)C[C@]3(C)[C@]2(C(=O)CO)O1 [TA, triamcinolone acetonide, reference compound] | – | – | no intraocular inflammation and retinal vascular congestion was recorded | – | – | 3 | 11 | 4 | 0 | – | – | – | – | – | – | – |
| – | – | Echistatin [reference compound] | – | – | no intraocular inflammation and retinal vascular congestion was recorded | – | significantly inhibited | 0 | 12 | 3 | 2 | smaller means | Two eyes treated with echistatin developed cataract | smaller area of CNV | approximately 1.6 fold | not statistically significant | significantly inhibited | additive effects |
